Measured values taken from patent US10576086B2, “Triazine derivatives as interferon-gamma inhibitors” (University of Greenwich, priority 2015, dated 2020).

Tested on: IFN-γ production in human peripheral blood mononuclear cells (PBMCs)
Assay: Experiment 1: IFN-γ production by PHA-stimulated human PBMCs, ELISA
Type: cell-based
Conditions: for IFN-γ Concentration: PHA 5 μg/ml; for IFN-γ Concentration, Mean: 24 h
Method: The ex vivo activity of various compounds towards suppression of IFN-γ production in human peripheral blood mononuclear cells (PBMCs) was studied.
[…] They were not taking any other prescribed medication that could interfere with the results.
The blood was transferred into 50 ml centrifuge tubes (Corning, USA) containing heparin sodium salt 37.5 mg heparin powder diluted in 300-500 μl phosphate buffered saline (PBS) for 50 ml blood), and centrifuged at 2000 rpm for 10 minutes, and the plasma portion was separated. The plasma was further centrifuged at 3000 rpm for 10 minutes, and the supernatant separated and kept for later use.
The blood cells from the initial centrifugation were diluted with an equal volume of RPMI-1640 (Sigma, UK), and layered (2:1) onto Lymphoprep (Axis-Shield, Norway) in 25 ml universal tubes (Bibby Sterilin, UK) for density gradient centrifugation at 2500 rpm for 30 minutes.
PBMCs (lymphocytes and monocytes) were then removed from the interface, diluted in an equal volume of RPMI-1640 and washed twice by centrifugation at 3000 rpm for 10 minutes.
For testing, the PBMCs were re-suspended in a known volume of culture medium containing RPMI-1640 supplemented with 2 mM L-glutamine, 100 U penicillin, and 100 μg streptomycin (Sigma, UK).
The cell count was determined by the use of a haemocytometer using 10 μl of the cell suspension. The number of cells was determined based on a count in 5 random 1 mm squares.
The cell solution was then diluted with the supplemented RPMI-1640 medium to ensure a cell count of 2×10^6 cells/ml.
The PBMC suspension was added to tissue culture tubes (Bibby Sterilin, UK) with 5% autologous plasma, 5 μg/mlphytohaemaglutinin (PHA) to stimulate T-lymphocyte IFN-γ production, and a solution containing various concentrations of the compound to be studied. A control containing no compound was also cultured for each subject.
In the case of lamotrigine, the isethionate salt was used, and diluted with RPMI-1640 to produce 100 μM, 30 μM, 10 μM and 3 μM solutions that were tested on PBMCs from the first three subjects. With PBMC's from the other two subjects, a 300 μM solution was also tested.
For sipatrigine, the mesylate salt was used, and diluted with RPMI-1640 to produce 30 μM, 10 μM, 3 μM and 1 μM solutions. It was tested on PBMCs from the first three subjects only.
The tubes were incubated at 37° C. for 24 hours under a 5% CO2 atmosphere. After incubation, the cells (>75% viable according to trypan blue test) were centrifuged at 3000 prm for 10 minutes, and the cell-free supernatants were collected and stored at −70° C. before analysis for IFN-γ.
Levels of IFN-γ produced by the PBMCs were determined by the DuoSet ELISA Development system for human IFN-γ (RD Systems, UK), with a sensitivity of 15.6-1000 pg/ml.
Capture antibody, detection antibody, standard and streptavidin-HRP (streptavidin conjugated to horseradish peroxidase) were provided. A 96-well microtitre plate (Corning CoStar, flat bottom, polystyrene, high binding microtitre plate, UK) was coated with 100 μl per well of capture antibody (mouse anti-human IFN-γ at 4.0 μg/ml), sealed and incubated overnight. Unbound capture antibody was washed from the wells three times, using a wash buffer (0.05% Tween 20 in PBS). Block buffer (1% bovine serum albumin (BSA) in PBS) was then added. After incubation for 1 hour, the wells were washed, and sample culture supernatants or standards were added. A 7-point standard curve (in the range 15.6-1000 pg/ml) was produced from […] recombinant human IFN-γ using 2-fold serial dilutions in reagent diluent (0.1% BSA, 0.05% Tween 20 in tris-buffered saline (20 mM Trizma base, 150 mM NaCl)). The sealed plates were left to incubate for 2 hours.
After further washing, the detection antibody (biotinylated goat anti-human IFN-γ at 175 ng/ml) was added, and the plates sealed and incubated for a further 2 hours. […]

Nc1nnc(-c2cccc(Cl)c2Cl)c(N)n1 [Lamotrigine, 3,5-diamino-6-(2,3-dichlorophenyl)-1,2,4-triazine]
IFN-γ Concentration (3 μM, Subject 1, 24 h): 1153.13 pg/mL | IFN-γ Concentration (3 μM, Subject 2, 24 h): 1238.68 pg/mL | IFN-γ Concentration (3 μM, Subject 3, 24 h): 1641.69 pg/mL | IFN-γ Concentration (3 μM, Subject 4, 24 h): 937.30 pg/mL | IFN-γ Concentration (3 μM, Subject 6, 24 h): 1305.54 pg/mL | IFN-γ Concentration, Mean (3 μM, mean of five subjects): 1255.27 pg/mL | IFN-γ Concentration (10 μM, Subject 1, 24 h): 923.32 pg/mL | IFN-γ Concentration (10 μM, Subject 2, 24 h): 1307.46 pg/mL | IFN-γ Concentration (10 μM, Subject 3, 24 h): 1180.21 pg/mL | IFN-γ Concentration (10 μM, Subject 4, 24 h): 895.04 pg/mL | IFN-γ Concentration (10 μM, Subject 6, 24 h): 1227.25 pg/mL | IFN-γ Concentration, Mean (10 μM, mean of five subjects): 1106.66 pg/mL | IFN-γ Concentration (30 μM, Subject 1, 24 h): 872.99 pg/mL | IFN-γ Concentration (30 μM, Subject 2, 24 h): 1089.69 pg/mL | IFN-γ Concentration (30 μM, Subject 3, 24 h): 897.48 pg/mL | IFN-γ Concentration (30 μM, Subject 4, 24 h): 853.66 pg/mL | IFN-γ Concentration (30 μM, Subject 6, 24 h): 1191.37 pg/mL | IFN-γ Concentration, Mean (30 μM, mean of five subjects): 981.04 pg/mL | IFN-γ Concentration (100 μM, Subject 1, 24 h): 834.21 pg/mL | IFN-γ Concentration (100 μM, Subject 2, 24 h): 886.41 pg/mL | IFN-γ Concentration (100 μM, Subject 3, 24 h): 392.96 pg/mL | IFN-γ Concentration (100 μM, Subject 4, 24 h): 775.28 pg/mL | IFN-γ Concentration (100 μM, Subject 6, 24 h): 1095.88 pg/mL | IFN-γ Concentration, Mean (100 μM, mean of five subjects): 796.95 pg/mL | IFN-γ Concentration (300 μM, Subject 4, 24 h): 495.48 pg/mL | IFN-γ Concentration (300 μM, Subject 6, 24 h): 798.32 pg/mL | IFN-γ Concentration, Mean (300 μM, mean of two subjects): 646.90 pg/mL | inhibition of IFN-γ production, trend (300 μM, two subjects, no significance value calculated): continuing trend towards further increased inhibition | inhibition of IFN-γ production, significance recalculated without subject 3 (10, 30 and 100 μM, four subjects): statistically significant (P<0.05) inhibition of IFN-γ production | inhibition of IFN-γ production (in words) (Experiment 1, human PBMCs): inhibits the amount of IFN-γ produced by the PBMCs | reduction in IFN-γ production (Subject 3, 100 μM): 75% | reduction of IFN-γ produced by PBMCs, significance vs control (concentrations of 10 to 100 μM, paired Student's t-test): statistically significant (P<0.05) reductions
